Among the data in the NIST ThermoML archive (doi:10.1016/j.fluid.2012.11.008) are refractive index values, retold here.

± gives the expanded uncertainty stated by the source.

A short description of the series: refractive index (Na D-line) (dimensionless). The conditions noted are these: 293.15 K; 101.33 kPa; Liquid; Standard Abbe refractometry.
Broadly, the refractive index is the speed of light in vacuum divided by its phase velocity in the sample. In the case of `CCC(C)(C)OC` [2-methoxy-2-methylbutane], the refractive index is 1.3886 ± 0.0009.

As for `COC(C)(C)C` [2-methoxy-2-methylpropane], the refractive index was determined as 1.3689 ± 0.0007.

For `CCC=C(C)C` [2-methyl-2-pentene], the refractive index came to 1.4003 ± 0.0008.

Turning to `CC#N` [acetonitrile], the refractive index came out at 1.3439 ± 0.0007.

Turning to `CCO` [ethanol], the refractive index worked out at 1.3618 ± 0.0007.

Take `CCOC(C)=O` [ethyl acetate]: the refractive index came to 1.3724 ± 0.0007.

In the case of `CCCCCCC` [heptane], the refractive index came out at 1.3878 ± 0.0007.

Take `CCCCCC` [hexane]: the refractive index is listed as 1.3752 ± 0.0007.

On to `CO` [methanol], for which the refractive index turned out to be 1.3287 ± 0.0007.
